Laboratory results as given in patent US4181716A, “Antibiotics” (Beecham Group Limited, priority 1974, dated 1980).
Where a name gives a salt, the structure may show the parent alone.

Assays:
[1] = tested on: carbonic anhydrase; assay: enzyme inhibition (not a general enzyme poison); assay type: biochemical; settings: at concentrations in excess of those required to inhibit the β-lactamase of E. coli
[2] = tested on: chymotrypsin; assay: enzyme inhibition (not a general enzyme poison); assay type: biochemical; settings: at concentrations in excess of those required to inhibit the β-lactamase of E. coli
[3] = solubility; assay type: physicochemical; settings: sodium salt
[4] = tested on: Staphylococcus aureus, Bacillus subtilis, Escherichia coli, Klebsiella aerogenes, Proteus mirabilis, Acinetobacter anitratus, Serratia marcescens and Shigella …; assay: antibacterial activity (property list); assay type: cell-based, bacteria; settings: substantially pure sodium salt
[5] = tested on: Staphylococcus aureus (Oxford); assay: antibacterial activity by bioautography (Table 4); assay type: cell-based; settings: TLC with cellulose, butanol/isopropyl alcohol/water 7:7:6 v/v
Source text: (§1) Analysis of the preparation by thin layer chromatography on cellulose (Eastman Kodak "Chromagram" sheets) developed with n-butanol; isopropanol:water (7:7:6) separated two active substances, one with an approximate Rf of 0.54 which was designated MM 4550 A and one with an approximate Rf of 0.72 which was designated MM 13902.
(§2) 13902 AS DETERMINED BY BIOAUTOGRAPHY (TLC
(§3) WITH CELLULOSE AND BUTONAL/ISOPROPYL
(§4) ALCOHOL/WATER 7:7:6 v/v)

[6] = tested on: Bacillus subtilis; assay: antibacterial activity by bioautography (Table 4); assay type: cell-based; settings: TLC with cellulose, butanol/isopropyl alcohol/water 7:7:6 v/v
Source text: as §1, §2, §3, §4

[7] = tested on: Enterobacter aerogenes; assay: antibacterial activity by bioautography (Table 4); assay type: cell-based; settings: TLC with cellulose, butanol/isopropyl alcohol/water 7:7:6 v/v
Source text: as §1, §2, §3, §4

[8] = tested on: Staphylococcus aureus (Russell); assay: antibacterial activity by bioautography (Table 4); assay type: cell-based; settings: TLC with cellulose, butanol/isopropyl alcohol/water 7:7:6 v/v
Source text: as §1, §2, §3, §4

[9] = tested on: Escherichia coli 10418; assay: antibacterial activity by bioautography (Table 4); assay type: cell-based; settings: TLC with cellulose, butanol/isopropyl alcohol/water 7:7:6 v/v
Source text: as §1, §2, §3, §4

[10] = tested on: Salmonella typhi; assay: antibacterial activity by bioautography (Table 4); assay type: cell-based; settings: TLC with cellulose, butanol/isopropyl alcohol/water 7:7:6 v/v
Source text: as §1, §2, §3, §4

[11] = tested on: Proteus morganii; assay: antibacterial activity by bioautography (Table 4); assay type: cell-based; settings: TLC with cellulose, butanol/isopropyl alcohol/water 7:7:6 v/v
Source text: as §1, §2, §3, §4

[12] = tested on: Klebsiella aerogenes; assay: antibacterial activity by bioautography (Table 4); assay type: cell-based; settings: TLC with cellulose, butanol/isopropyl alcohol/water 7:7:6 v/v
Source text: as §1, §2, §3, §4

[13] = stability; assay type: physicochemical
[14] = tested on: Escherichia coli, Klebsiella aerogenes, Proteus mirabilis, Proteus morganii and Staphylococcus aureus Russell; assay: synergism with ampicillin (property list); assay type: cell-based, bacteria; settings: sodium salt
[15] = tested on: trypsin; assay: enzyme inhibition (not a general enzyme poison); assay type: biochemical; settings: at concentrations in excess of those required to inhibit the β-lactamase of E. coli
[16] = tested on: dopa decarboxylase; assay: enzyme inhibition (not a general enzyme poison); assay type: biochemical; settings: at concentrations in excess of those required to inhibit the β-lactamase of E. coli
[17] = tested on: urease; assay: enzyme inhibition (not a general enzyme poison); assay type: biochemical; settings: at concentrations in excess of those required to inhibit the β-lactamase of E. coli
[18] = tested on: Klebsiella aerogenes; assay: assay of activity in units against culture filtrate; assay type: cell-based
Experimental: The MM 4550 (Complex) was eluted from the resin with 5% NaCl in 50% aqueous methanol. […] The MM 4550 (Complex) content of culture filtrate was arbitrarily set at 8 units/ml. The eluted fractions from the column were assayed using an antibacterial diffusion method against Klebsiella aerogenes and the activity units were calculated by reference to a standard line prepared by plotting zone diameter against units/ml. for various dilutions of culture filtrate (i.e. the culture filtrate was used as a standard).
The material produced above was arbitrarily assigned an activity of 340 l/ml. Assays were determined as described in Description 3.

[19] = tested on: monoamine oxidase; assay: enzyme inhibition (not a general enzyme poison); assay type: biochemical; settings: at concentrations in excess of those required to inhibit the β-lactamase of E. coli
[20] = tested on: Staphylococcus aureus, Bacillus subtilis, Escherichia coli, Klebsiella aerogenes, Proteus mirabilis, Salmonella typhi and Pseudomonas aeruginosa; assay: antibacterial activity (property list); assay type: cell-based, bacteria; settings: sodium salt
[21] = tested on: Proteus mirabilis; assay: antibacterial activity by bioautography (Table 4); assay type: cell-based; settings: TLC with cellulose, butanol/isopropyl alcohol/water 7:7:6 v/v
Source text: as §1, §2, §3, §4

[22] = tested on: Escherichia coli 311; assay: antibacterial activity by bioautography (Table 4); assay type: cell-based; settings: TLC with cellulose, butanol/isopropyl alcohol/water 7:7:6 v/v
Source text: as §1, §2, §3, §4

[23] = tested on: Staph. aureus Oxford; assay: MIC, microtitre method (Table 10); assay type: cell-based; settings: heavy inoculum, 1/100 overnight broth
Experimental: (§5) Partially purified MM 4550Adi-sodium salt (0.55 g) was chromatographed on a cellulose column (4.5 cm×29 cm; Whatman CC31 cellulose) eluted with n-propanol/water (4:1 v/v) at a flow rate of 2.5 ml./min. The first 135 ml of eluate was discarded and then 15 ml fractions collected.
(§6) ANTIBACTERIAL ACTIVITY OF THE DI-SODIUM
(§7) SALT OF MM 4550A ([…]-HEAVY
(§8) INOCULUM, 1/100 OVERNIGHT BROTH

[24] = tested on: Strep. faecalis; assay: MIC, microtitre method (Table 10); assay type: cell-based; settings: heavy inoculum, 1/100 overnight broth
Experimental: as §5, §6, §7, §8

[25] = tested on: Enterobacter cloacae N1; assay: MIC, microtitre method (Table 10); assay type: cell-based; settings: heavy inoculum, 1/100 overnight broth
Experimental: as §5, §6, §7, §8

[26] = tested on: Shigella sonnei; assay: MIC, microtitre method (Table 10); assay type: cell-based; settings: heavy inoculum, 1/100 overnight broth
Experimental: as §5, §6, §7, §8

[27] = tested on: Staph. aureus Russell; assay: MIC, microtitre method (Table 10); assay type: cell-based; settings: heavy inoculum, 1/100 overnight broth
Experimental: as §5, §6, §7, §8

[28] = tested on: Kleb. aerogenes A; assay: MIC, microtitre method (Table 10); assay type: cell-based; settings: heavy inoculum, 1/100 overnight broth
Experimental: as §5, §6, §7, §8

[29] = tested on: Bacillus subtilis A; assay: MIC, microtitre method (Table 10); assay type: cell-based; settings: heavy inoculum, 1/100 overnight broth
Experimental: as §5, §6, §7, §8

[30] = tested on: Proteus vulgaris WO 90; assay: MIC, microtitre method (Table 10); assay type: cell-based; settings: heavy inoculum, 1/100 overnight broth
Experimental: as §5, §6, §7, §8

[31] = tested on: Prov. stuartii; assay: MIC, microtitre method (Table 10); assay type: cell-based; settings: heavy inoculum, 1/100 overnight broth
Experimental: as §5, §6, §7, §8

[32] = tested on: Ps. aeruginosa A; assay: MIC, microtitre method (Table 10); assay type: cell-based; settings: heavy inoculum, 1/100 overnight broth
Experimental: as §5, §6, §7, §8

[33] = tested on: Proteus mirabilis 13; assay: MIC, microtitre method (Table 10); assay type: cell-based; settings: heavy inoculum, 1/100 overnight broth
Experimental: as §5, §6, §7, §8

[34] = tested on: Salmonella typhimurium CT 10; assay: MIC, microtitre method (Table 10); assay type: cell-based; settings: heavy inoculum, 1/100 overnight broth
Experimental: as §5, §6, §7, §8

[35] = tested on: Serratia marcescens US 39; assay: MIC, microtitre method (Table 10); assay type: cell-based; settings: heavy inoculum, 1/100 overnight broth
Experimental: as §5, §6, §7, §8

## CC(=O)N/C=C/[S+]([O-])C1=C(C(=O)O)N2C(=O)C(C(C)OS(=O)(=O)O)C2C1 (stereo not drawn) [MM 4550A]
[1]
  inhibition of carbonic anhydrase: does not inhibit
[2]
  inhibition of chymotrypsin: does not inhibit
[3]
  solubility in chloroform, diethylether and hydrocarbons: substantially insoluble
  solubility in methanol: soluble
  solubility in water: highly soluble
[4]
  antibacterial activity: possesses antibacterial activity
[5]
  Zone Diameter on Bioautography: 13.0 mm
[6]
  Zone Diameter on Bioautography: 24.0 mm
[7]
  Zone Diameter on Bioautography: 6.5 mm
[8]
  Zone Diameter on Bioautography: 12.0 mm
[9]
  Zone Diameter on Bioautography: 20.0 mm
[10]
  Zone Diameter on Bioautography: 19.5 mm
[11]
  Zone Diameter on Bioautography: 16.0 mm
[12]
  Zone Diameter on Bioautography: 20.0 mm
[13]; monobasic salts and free acid
  stability for isolation from mixtures: not sufficiently stable to isolate from mixtures
[13]; unsalted acid form
  stability: tends to be unstable
[14]
  synergism when mixed with ampicillin: synergizes its activity
[15]
  inhibition of trypsin: does not inhibit
[16]
  inhibition of dopa decarboxylase: does not inhibit
[17]
  inhibition of urease: does not inhibit
[18]; Example 3, partially purified salt (2.18 g brown solid)
  activity: 3,100 units/mg
[19]
  inhibition of monoamine oxidase: does not inhibit

## CC(=O)N/C=C/SC1=C(C(=O)O)N2C(=O)C(C(C)OS(=O)(=O)O)C2C1 (stereo not drawn) [MM 13902]
[20]
  antibacterial activity: possesses antibacterial activity
[5]
  Zone Diameter on Bioautography: 4.0 mm
[6]
  Zone Diameter on Bioautography: 15.0 mm
[7]
  Zone Diameter on Bioautography: No Zone
[21]
  Zone Diameter on Bioautography: 13.5 mm
[8]
  Zone Diameter on Bioautography: 4.0 mm
[9]
  Zone Diameter on Bioautography: 13.5 mm
[10]
  Zone Diameter on Bioautography: 21.0 mm
[11]
  Zone Diameter on Bioautography: 9.5 mm
[12]
  Zone Diameter on Bioautography: 20.0 mm
[22]
  Zone Diameter on Bioautography: 10.5 mm
[14]
  synergism when mixed with ampicillin: synergyses its activity

## CC(=O)N/C=C/[S+]([O-])C1=C(C(=O)O)N2C(=O)C(C(C)OS(=O)(=O)O)C2C1 (stereo not drawn) [di-sodium salt of MM 4550A]
[18]; Example 3, yellowish powder (87 mg) after cellulose column
  activity: 6,600 units/mg
[23]
  MIC: 20 µg/mL
[24]
  MIC: 100 µg/mL
[25]
  MIC: 100 µg/mL
[26]
  MIC: 5 µg/mL
[27]
  MIC: 20 µg/mL
[28]
  MIC: 2.5 µg/mL
[29]
  MIC: 25 µg/mL
[30]
  MIC: 5 µg/mL
[31]
  MIC: 5 µg/mL
[32]
  MIC: > 100 µg/mL
[33]
  MIC: 10 µg/mL
[34]
  MIC: 5 µg/mL
[35]
  MIC: 20 µg/mL
